In series [1] the test system is SARS-CoV-2 (WK-521). In words: microbe, parasite or virus in culture. Type of series: cell-based. Conditions: Severe acute respiratory syndrome coronavirus 2, HEK-293T, 72 h, HEK293T/ACE2 cells, MOI=0.1, 3 days, qPCR of viral RNA in supernatant; for IC90: read-out: IC50(μM) (footnote defines IC90: 90% inhibitory concentration); for IC50: read-out: IC50: 50% inhibitory concentration (reduces viral production and replication by 50%). A general note: Quantitative PCR measures a nucleic acid by following its amplification.

The test system of the next series is HEK293T/ACE2 cells. Conditions: human, 3 days.
Series [2] relates to VeroE6/TMPRSS2 cells. In words: Cytotoxicity in uninfected VeroE6/TMPRSS2 cells (viable cell number, Cell Counting Kit-8). Conditions: read-out: CC50: 50% cytotoxic concentration (concentration of agent which reduces the number of viable cells by 50%), 3 days of culture.
In series [3] the test system is SARS-CoV-2 (WK-521). In words: Anti-SARS-CoV-2 effect, assay with VeroE6/TMPRSS2 cells (inhibition of virus-induced cell death, Cell Counting Kit-8). Type of series: cell-based. The note with it: VeroE6/TMPRSS2 cells, MOI=0.01, 3 days of culture; read-out: EC50: 50% effective concentration (concentration of agent which inhibits cell death induced by SARS-CoV-2 infection by 50%). (In general: Formazan colour is commonly taken as a measure of viable cells.)

Series [4] in a line: in vitro. The note with it: human.
Series [5] can be described thus: in vitro. Conditions: African green monkey.
The test system of series [6] is VeroE6/TMPRSS2 cells. The note with it: African green monkey, 3 days.

Read-outs that look alike come from different tables or passages of the source. Bounds are passed on as bounds.

The text below walks through data of patent publication US20230192622A1, “ANTI-SARS-COV-2 DRUG” (ONCOLYS BIOPHARMA, INC., priority 2020, published 2023).

Regarding `CCCCn1c(=O)c2ccc(OCC(C)=O)cc2c2cc(C(O)(C(F)(F)F)C(F)(F)F)ccc21` [NR-93], in the series with SARS-CoV-2 (WK-521) [1], the IC90 turned out to be 3.27 µM and the IC50 came to 0.243 µM. For the same compound, in the series with HEK293T/ACE2 cells, the CC50 was over 20 µM.
As to “5-butyl-2-(1′,1′,1′,3′,3′,3′-hexafluoro-2′-hydroxypropan-2′-yl)-7,8,9-trimethoxy-phenanthridin-6(5H)-one [KZ39]”, the CC50 in the series with VeroE6/TMPRSS2 cells [2] was over 10 µM. Further, the EC50 in the series on SARS-CoV-2 (WK-521) [3] stood at 8.6 µM.
As to `CCCCn1c(=O)c2ccc(OC)cc2c2cc(C(O)(C(F)(F)F)C(F)(F)F)ccc21` [KZ32, 5-butyl-2-(1′,1′,1′,3′,3′,3′-hexafluoro-2′-hydroxypropan-2′-yl)-9-methoxy-phenanthridin-6(5H)-one], in the series with SARS-CoV-2 (WK-521) [1], the IC90 is 7.37 µM and the IC50 was 1.03 µM. Further, the CC50 at 3 days in the series “in vitro [4]” is over 20 µM. Moreover, in “in vitro [5]”, the CC50 at 3 days was over 10 µM. Also, in the series with SARS-CoV-2 (WK-521) [3], the EC50 was found to be 1.8 µM.
In turn, `CCCCn1c(=O)c2cc(C)ccc2c2cc(C(O)(C(F)(F)F)C(F)(F)F)ccc21` [KZ24] gave a CC50 in the series with VeroE6/TMPRSS2 cells [6] of over 10 µM. The EC50 with SARS-CoV-2 (WK-521) [3] was determined as 4.1 µM.
Take `CCCCn1c(=O)c2ccc(C)cc2c2cc(C(O)(C(F)(F)F)C(F)(F)F)ccc21` [YN033]: the CC50 in the series on VeroE6/TMPRSS2 cells [6] is over 10 µM. The EC50 in the series with SARS-CoV-2 (WK-521) [3] stood at 6 µM.
On to `CCCCn1c(=O)c2ccc(O)cc2c2cc(C(O)(C(F)(F)F)C(F)(F)F)ccc21` [YN029, 5-butyl-2-(1′,1′,1′,3′,3′,3′-hexafluoro-2′-hydroxypropan-2′-yl) hydroxyphenanthridin-6(5H)-one], for which, in the series on SARS-CoV-2 (WK-521) [1], the IC90 amounted to 3.04 µM and the IC50 was determined as 0.588 µM. The compound further yielded a CC50 at 3 days in “in vitro [4]” of 16.9 µM. The compound further came in with a CC50 at 3 days in the series “in vitro [5]” of over 10 µM. In the series with SARS-CoV-2 (WK-521) [3], the EC50 turned out to be 1.9 µM.
`CCCCn1c(=O)c2ccccc2c2cc(C(O)(C(F)(F)F)C(F)(F)F)ccc21` [HA-579] yielded a CC50 at 3 days in the series “in vitro [5]” of over 10 µM. Also, the EC50 in the series with SARS-CoV-2 (WK-521) [3] is 8.7 µM.
Take `CCCCn1c(=O)c2ccccc2c2cc(C(O)(C(F)(F)F)C(F)(F)F)cc(C)c21` [KZ07]: the CC50 in the series with VeroE6/TMPRSS2 cells [6] was over 10 µM. Moreover, the EC50 in the series on SARS-CoV-2 (WK-521) [3] amounted to 3.3 µM.
